Data on 6 compounds can be found in PMC10580381 (ACS Pharmacology & Translational Science, 2023).

As a reminder, the viability is a per cent measure of how many cells are alive, often set against a control. A higher viability goes with less harm to the cells.

The target of data set [1] is T1, ABCG2 (Homo sapiens, UniProt Q9UNQ0).
T1 sequence (Q9UNQ0 1-655): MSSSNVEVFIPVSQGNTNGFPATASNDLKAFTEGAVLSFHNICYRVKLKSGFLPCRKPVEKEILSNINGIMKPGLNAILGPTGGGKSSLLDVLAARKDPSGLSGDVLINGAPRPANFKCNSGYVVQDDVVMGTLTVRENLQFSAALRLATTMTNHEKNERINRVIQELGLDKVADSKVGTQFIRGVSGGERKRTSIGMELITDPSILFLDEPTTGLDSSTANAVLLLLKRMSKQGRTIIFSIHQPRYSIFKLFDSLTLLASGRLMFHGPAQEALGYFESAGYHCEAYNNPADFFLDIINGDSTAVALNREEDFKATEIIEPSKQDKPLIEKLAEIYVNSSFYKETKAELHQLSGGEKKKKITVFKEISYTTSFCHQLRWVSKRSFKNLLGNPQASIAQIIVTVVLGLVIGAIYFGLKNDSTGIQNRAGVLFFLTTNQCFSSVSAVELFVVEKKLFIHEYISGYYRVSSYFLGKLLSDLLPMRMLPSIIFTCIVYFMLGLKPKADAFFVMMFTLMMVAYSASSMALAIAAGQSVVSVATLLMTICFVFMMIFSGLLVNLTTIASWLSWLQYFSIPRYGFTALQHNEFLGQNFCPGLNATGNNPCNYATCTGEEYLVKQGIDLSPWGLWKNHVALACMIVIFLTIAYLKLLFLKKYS
Description: ABC transporter-mediated drug efflux assay, ABCG2 (pheophorbide A). The conditions noted are these: FTC 1 μM, control ABCG2 inhibitor, HEK293/ABCG2. As to the method: (§1) Specific inhibitors for ABCB1 (PSC833) and ABCG2 (FTC) were used as a control for comparison. Cells were analyzed by using a LSRFortessa cell analyzer (BD Biosciences). […] At least 10,000 events were collected for quantitative analysis.

Data set [2] concerns the target ABCB1 (Homo sapiens, UniProt P08183). Description: ABC transporter-mediated drug efflux assay, ABCB1 (rhodamine 123). The conditions noted are these: PSC833 1 μM, control ABCB1 inhibitor, HEK293/ABCB1. As to the method: as §1
The conditions of data set [3]: cited from earlier work.
For data set [4], the system named is p27^Kip1 (CDKN1B). Description: Real-time PCR of p27^Kip1 expression in H1975. In kind it is cell-based, human. Particulars: H1975, 24 h, flunarizine 2.5, 5, or 10 μM or SAHA 0.25, 0.5, or 1 μM; all concentrations tested. As to the method: (§2) Reverse transcription was performed using 1 μg of total RNA sample with the PrimeScript First Strand cDNA Synthesis Kit (TaKaRa Biomedical Technology) at 37 °C for 10 min. The cDNA was then amplified by real-time PCR to determine the relative expression of p27^Kip1 and BIM using the KAPA SYBR FAST qPCR kit (KapaBiosystems, Wilmington, Massachusetts) with a LightCycler 480 Instrument I instrument (Roche Applied Science, Indianapolis, Indiana). The house-keeping gene GAPDH was also measured for normalization. Specific primer sequences used in the PCR reactions are p27^Kip1, forward 5′-[…]-3′ and reverse 5′-[…]-3′; Bim, forward 5′-[…]-3′ and reverse 5′-[…]-3′; and GAPDH, forward 5′-[…]-3′ and reverse 5′-[…]-3′. The PCR temperature program was set at 95 °C for 5 min, followed by 35 cycles of 95 °C for 10 s and 60 °C for 10 s. The fluorescent signal was detected at the end of the PCR elongation step of every cycle to keep track of the amount of amplified DNA. ΔCt was calculated by subtracting the Ct of GAPDH from the Ct of Bim or p27^Kip1. Fold change in gene expression was analyzed by the 2^–ΔΔCt method.
(In general: Quantitative PCR measures a nucleic acid by following its amplification.)

The subject of data set [5] is Bim (BCL2L11). Description: Real-time PCR of Bim expression in H1975. In kind it is cell-based, human. The conditions noted are these: H1975, 24 h, flunarizine 2.5, 5, or 10 μM or SAHA 0.25, 0.5, or 1 μM; all concentrations tested. As to the method:
as §2

The subject of data set [6] is histone H3 acetylation (Lys 9,14) (AcH3). Description: Western blot of histone H3 acetylation (AcH3) in H1975 cells. The conditions noted are these: 10 μM, 24 h (Figure 1A,B). It is filed as cell-based, human. As to the method:
An increase of histone acetylation is a well-characterized hallmark of HDAC inhibition. […] After the cancer cells were treated with the designated drug candidates, they were harvested in lysis buffer (0.05 M HEPES, 0.15 M NaCl, 2 mM EDTA, 10% v/v glycerol, and 1% v/v Triton X-100, pH 7.4) supplemented with protease and phosphatase inhibitors. Sodium dodecyl sulfate poly(acrylamide) gel electrophoresis (SDS-PAGE) was used to separate the different proteins in the whole cell lysates, which were then transferred to a poly(vinylidene difluoride) membrane for immunoblot analysis using different specific antibodies (acetylated histone H3, acetylated α-tubulin, histone H3, or GAPDH; Cell Signaling Technology). The bands corresponding to specific proteins of interest were visualized by using the WesternBright ECL HRP substrate (Advansta, San Jose, California). A chemiluminescent Western blot signal was detected and analyzed using a ChemiDoc MP system (Bio-Rad Laboratories, Hercules, California).
(A western blot detects proteins with antibodies after separation by electrophoresis.)

Data set [7] has as its system A549 cells. Particulars: A549, gefitinib 5 μM alone, 48 h.
Description: At least 10,000 events were acquired using a LSRFortessa cell analyzer, and the flow cytometric data were analyzed using BD FACSDiva software (BD Biosciences). Apoptotic cells were defined as the ones stained positive for both Annexin V-FITC and 7-AAD.
In data set [8] the test system is H1650 cells.
For data set [9], the system named is H1975 cells. Particulars: H1975, gefitinib 5 μM alone, 48 h.
Data set [10] deals with H820 cells. The conditions noted are these: H820, gefitinib 5 μM alone, 48 h.
For data set [11], the system named is H1975 cells.
For data set [12], the system named is H820 cells.
The nature of data set [13]: in vivo. The conditions noted are these: NOD SCID γ (NSG), mouse.
Description: A Zorbax Eclipse XDB-C18 column (4.6 × 250 mm^2, 5 μm, Agilent Technologies) was used to achieve chromatographic separation of the analytes. An isocratic chromatographic system was used. The mobile phase was water:acetonitrile (35:65, v/v) with 0.1% formic acid at a flow rate of 0.25 mL/min. The injection volume of the sample was 10 μL. The triple quadrupole mass spectrometer was operated in positive electrospray ionization mode. The spray voltage was +3000 V, and the vaporizer temperature was 280 °C. The pressure of the collision gas was 1.0 mTorr.

Chain of ABCB1 (P08183 whole entry, species assumed): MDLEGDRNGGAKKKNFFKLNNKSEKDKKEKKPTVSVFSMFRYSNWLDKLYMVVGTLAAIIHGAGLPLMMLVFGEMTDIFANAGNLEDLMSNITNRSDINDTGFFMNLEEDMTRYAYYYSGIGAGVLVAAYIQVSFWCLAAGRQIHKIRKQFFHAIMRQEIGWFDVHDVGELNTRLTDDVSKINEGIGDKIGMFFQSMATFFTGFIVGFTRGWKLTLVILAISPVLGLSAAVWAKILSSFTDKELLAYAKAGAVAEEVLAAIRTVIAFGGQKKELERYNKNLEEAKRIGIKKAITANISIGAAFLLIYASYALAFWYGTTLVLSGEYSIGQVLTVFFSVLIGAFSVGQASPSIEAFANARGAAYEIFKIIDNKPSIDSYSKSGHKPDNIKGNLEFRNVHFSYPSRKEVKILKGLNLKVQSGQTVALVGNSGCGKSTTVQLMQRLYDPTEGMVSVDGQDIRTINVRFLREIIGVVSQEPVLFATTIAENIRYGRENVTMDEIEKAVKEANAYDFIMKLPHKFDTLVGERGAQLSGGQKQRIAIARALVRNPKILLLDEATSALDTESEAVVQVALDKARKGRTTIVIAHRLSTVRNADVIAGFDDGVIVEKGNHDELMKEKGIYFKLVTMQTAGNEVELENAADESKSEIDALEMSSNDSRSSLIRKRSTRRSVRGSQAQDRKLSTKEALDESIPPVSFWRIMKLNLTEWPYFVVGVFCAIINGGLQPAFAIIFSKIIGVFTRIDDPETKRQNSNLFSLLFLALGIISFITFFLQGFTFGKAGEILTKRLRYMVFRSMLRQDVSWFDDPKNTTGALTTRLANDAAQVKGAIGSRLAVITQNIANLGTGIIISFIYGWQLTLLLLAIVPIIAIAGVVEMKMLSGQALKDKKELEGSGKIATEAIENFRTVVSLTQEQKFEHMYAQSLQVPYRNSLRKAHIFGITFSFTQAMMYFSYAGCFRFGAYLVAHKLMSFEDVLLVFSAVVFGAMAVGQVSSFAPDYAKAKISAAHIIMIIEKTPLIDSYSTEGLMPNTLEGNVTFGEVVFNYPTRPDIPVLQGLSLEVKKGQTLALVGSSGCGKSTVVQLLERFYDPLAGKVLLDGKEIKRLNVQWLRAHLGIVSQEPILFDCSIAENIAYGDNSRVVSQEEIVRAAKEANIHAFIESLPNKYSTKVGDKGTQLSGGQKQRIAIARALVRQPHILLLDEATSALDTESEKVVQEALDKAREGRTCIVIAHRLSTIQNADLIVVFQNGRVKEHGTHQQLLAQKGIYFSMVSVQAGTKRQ

In the case of `COc1ccc2c3c([nH]c2c1)[C@H](C=C(C)C)N1C(=O)[C@@H]2CCCN2C(=O)[C@@H]1C3` [FTC], the “efflux of pheophorbide A (ABCG2 substrate)” value in [1] is on record as “potently inhibited the efflux”.

For the compound `C/C=C/C[C@@H](C)C(=O)[C@H]1C(=O)N[C@@H](C(C)C)C(=O)N(C)CC(=O)N(C)[C@@H](CC(C)C)C(=O)N[C@@H](C(C)C)C(=O)N(C)[C@@H](CC(C)C)C(=O)N[C@@H](C)C(=O)N[C@H](C)C(=O)N(C)[C@@H](CC(C)C)C(=O)N(C)[C@@H](CC(C)C)C(=O)N(C)[C@@H](C(C)C)C(=O)N1C` [PSC833], in data set [2], the “efflux of rhodamine 123 (ABCB1 substrate)” value is given as “potently inhibited the efflux”.

Take `O=C(CCCCCCC(=O)Nc1ccccc1)NO` [SAHA, Vorinostat]: the elimination half-life in data set [3] is on record as approximately 2 h. Further, the “p27^Kip1 expression” value in data set [4] is on record as “significantly increase”. The Bim expression entry in data set [5] was “significantly increase”.

`C(=C\c1ccccc1)/CN1CCN(C(c2ccccc2)c2ccccc2)CC1` [cinnarizine]: the “fold increase in histone H3 acetylation (AcH3) over the vehicle control” value in data set [6] came to 15 ± 3 fold.

Take `COc1cc2ncnc(Nc3ccc(F)c(Cl)c3)c2cc1OCCCN1CCOCC1` [gefitinib]: the apoptotic cell population in data set [7] stood at 7.6 ± 0.9%; in data set [9] it was 8.9 ± 1.3%; in data set [10], 7.9 ± 1.6%. The viability in data set [8] was determined as 52 ± 8%; in [11], 61 ± 5%; in data set [12], 66 ± 8%. Also, the concentration at 4 h in data set [13] was found to be 32 ± 6 nM.

As to `Nc1nc(N)c2nc(-c3ccccc3)c(N)nc2n1` [triamterene], in [6], the “fold increase in histone H3 acetylation (AcH3) over the vehicle control” value was determined as 75 ± 6 fold.
